The text below walks through data of PMC2864793 (Molecular cell, 2010).

For data set [1], the target named is T1, IRE1 (Saccharomyces cerevisiae, UniProt P32361, K985A).
T1 sequence (P32361 658-1115 K985A): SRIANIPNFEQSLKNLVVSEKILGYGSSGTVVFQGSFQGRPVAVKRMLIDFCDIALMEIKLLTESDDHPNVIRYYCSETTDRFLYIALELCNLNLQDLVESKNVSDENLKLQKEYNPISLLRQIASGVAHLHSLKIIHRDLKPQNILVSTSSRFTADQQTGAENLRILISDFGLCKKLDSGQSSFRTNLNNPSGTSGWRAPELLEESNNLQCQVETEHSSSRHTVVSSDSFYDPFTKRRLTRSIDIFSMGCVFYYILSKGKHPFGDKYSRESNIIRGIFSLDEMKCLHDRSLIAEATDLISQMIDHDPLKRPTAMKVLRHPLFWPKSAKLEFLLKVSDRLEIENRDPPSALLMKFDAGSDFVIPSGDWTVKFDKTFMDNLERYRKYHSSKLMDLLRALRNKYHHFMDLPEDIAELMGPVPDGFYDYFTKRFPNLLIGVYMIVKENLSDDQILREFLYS
Briefly: RNase activation assay and DSS crosslinking at […] ADP. It is filed as biochemical.

Data set [2] has as its target IRE1 (Saccharomyces cerevisiae, UniProt P32361). The data set can be described thus: co-crystal structure with quercetin. The data set is classed as biochemical.
The target in data set [3] is T2, IRE1 (Saccharomyces cerevisiae, UniProt P32361, D797A).
T2 sequence (P32361 658-1115 D797A): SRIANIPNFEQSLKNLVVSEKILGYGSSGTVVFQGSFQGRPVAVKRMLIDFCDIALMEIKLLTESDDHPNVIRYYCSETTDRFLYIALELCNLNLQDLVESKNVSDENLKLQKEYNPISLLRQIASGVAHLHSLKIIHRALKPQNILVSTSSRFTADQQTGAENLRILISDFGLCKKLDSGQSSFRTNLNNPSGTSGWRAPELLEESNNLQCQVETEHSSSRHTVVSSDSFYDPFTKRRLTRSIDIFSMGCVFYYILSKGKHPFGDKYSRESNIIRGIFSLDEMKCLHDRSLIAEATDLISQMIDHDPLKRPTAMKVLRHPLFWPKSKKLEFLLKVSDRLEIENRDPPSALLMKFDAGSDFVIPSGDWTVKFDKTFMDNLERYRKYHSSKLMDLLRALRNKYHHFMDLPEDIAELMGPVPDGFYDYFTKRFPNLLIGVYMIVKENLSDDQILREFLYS
Briefly: fluorescent RNase activation assay at […]. It is filed as biochemical.

The data set “cross-linking” concerns the molecule itself. Briefly: cross-linking.
The data set “AUC” concerns the molecule itself. The data set can be described thus: AUC.

A word on the EC50: it is the midpoint of the concentration-response curve. High values mean a need for much substance, low ones an effect from little substance. With `Nc1ncnc2c1ncn2[C@@H]1O[C@H](COP(=O)(O)OP(=O)(O)O)[C@@H](O)[C@H]1O` [ADP], the “RNase activation assay and DSS crosslinking at 2 mM ADP” value at IRE1 [1] is “abolished by the Q-site mutant IRE1^K985A, although ADP-dependent crosslinking was still observed”. For the same molecule, the EC50 on IRE1 [2] was roughly 40 µM.
Consider `O=c1c(O)c(-c2ccc(O)c(O)c2)oc2cc(O)cc(O)c12` [quercetin], for which, at IRE1 [3], the “fluorescent RNase activation assay at 25 μM” value is “addition of quercetin substantially activates its RNase (Figure 7C). Such activation was Q-site dependent”.

B1: IRE1^K985A (Q-site mutant of yeast IRE1 658–1115) (domain or fragment, UniProt P32361 658-1115, looked up)
chain: SRIANIPNFEQSLKNLVVSEKILGYGSSGTVVFQGSFQGRPVAVKRMLIDFCDIALMEIKLLTESDDHPNVIRYYCSETTDRFLYIALELCNLNLQDLVESKNVSDENLKLQKEYNPISLLRQIASGVAHLHSLKIIHRDLKPQNILVSTSSRFTADQQTGAENLRILISDFGLCKKLDSGQSSFRTNLNNPSGTSGWRAPELLEESNNLQCQVETEHSSSRHTVVSSDSFYDPFTKRRLTRSIDIFSMGCVFYYILSKGKHPFGDKYSRESNIIRGIFSLDEMKCLHDRSLIAEATDLISQMIDHDPLKRPTAMKVLRHPLFWPKSAKLEFLLKVSDRLEIENRDPPSALLMKFDAGSDFVIPSGDWTVKFDKTFMDNLERYRKYHSSKLMDLLRALRNKYHHFMDLPEDIAELMGPVPDGFYDYFTKRFPNLLIGVYMIVKENLSDDQILREFLYS
modifications: purified as a phosphorylated protein (sites not given)
Consider B1, for which the binding result in “cross-linking” is reported as “binds”.

B2: cytosolic portion of yeast IRE1 (residues 658–1115; inclusive of both the kinase and KEN domains) (domain or fragment, UniProt P32361 658-1115, looked up)
chain: SRIANIPNFEQSLKNLVVSEKILGYGSSGTVVFQGSFQGRPVAVKRMLIDFCDIALMEIKLLTESDDHPNVIRYYCSETTDRFLYIALELCNLNLQDLVESKNVSDENLKLQKEYNPISLLRQIASGVAHLHSLKIIHRDLKPQNILVSTSSRFTADQQTGAENLRILISDFGLCKKLDSGQSSFRTNLNNPSGTSGWRAPELLEESNNLQCQVETEHSSSRHTVVSSDSFYDPFTKRRLTRSIDIFSMGCVFYYILSKGKHPFGDKYSRESNIIRGIFSLDEMKCLHDRSLIAEATDLISQMIDHDPLKRPTAMKVLRHPLFWPKSKKLEFLLKVSDRLEIENRDPPSALLMKFDAGSDFVIPSGDWTVKFDKTFMDNLERYRKYHSSKLMDLLRALRNKYHHFMDLPEDIAELMGPVPDGFYDYFTKRFPNLLIGVYMIVKENLSDDQILREFLYS
modifications: phosphorylated when purified from bacteria (sites not given for this construct)
For orientation: stoichiometry N means a count of units in the complex or per binding partner. With B2, in “AUC”, the “stoichiometry N” value stood at 2.
